Experiment [1] addresses human tear lipocalin (TL) mutant S61/S153 (Homo sapiens, UniProt P31025, C119L/C171S/C79S). Put plainly: fluorescence titration, steady-state deconvoluted with time-resolved lifetimes. It is filed as binding.
Experiment [2] deals with T1, human tear lipocalin (TL) (Homo sapiens, UniProt P31025, C119L). The description is as above. It is filed as binding.
Experiment [3] addresses T1, human tear lipocalin (TL). The experiment is described as follows: time-dependent fluorescence binding kinetics.
Experiment [4] deals with human tear lipocalin (TL) mutant S61/S153 (Homo sapiens, UniProt P31025, C79S/C119L/C171S). Put plainly: time-dependent fluorescence binding kinetics.
human tear lipocalin (TL) mutant S61/S153 (Homo sapiens, UniProt P31025, C79S/C119L/C171S), sequence (P31025 19-176 C79S/C119L/C171S): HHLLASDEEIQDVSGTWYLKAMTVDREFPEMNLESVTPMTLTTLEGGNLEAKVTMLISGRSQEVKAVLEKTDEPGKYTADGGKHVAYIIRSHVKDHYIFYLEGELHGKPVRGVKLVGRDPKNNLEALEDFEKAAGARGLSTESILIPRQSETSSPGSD

Structures are written as SMILES.

We go through three compounds from article PMC3103136 (2011).

T1 sequence (P31025 19-176 C119L): as the sequence (P31025 19-176 C79S/C119L/C171S) above, with S61C, S153C counted along it
human tear lipocalin (TL) mutant S61/S153 (Homo sapiens, UniProt P31025, C119L/C171S/C79S), sequence (P31025 19-176 C79S/C119L/C171S): as the sequence (P31025 19-176 C79S/C119L/C171S) above

Usually Kd stands for a measure of binding affinity in units of concentration. Read a low Kd as higher affinity. On to `CN(C)c1cccc2c(S(=O)(=O)NCCCCCCCCCCC(=O)O)cccc12` [DAUDA, 11-((5-dimethylaminonaphthalene-1-sulfonyl)amino)undecanoic acid], for which the Kd in experiment [1] was 2600 ± 300 nM; in experiment [2], 2400 ± 300 nM.
For the compound `C[C@H](CNc1ccc([N+](=O)[O-])c2nonc12)[C@H]1CC[C@H]2[C@@H]3CC=C4C[C@@H](O)CC[C@]4(C)[C@H]3CC[C@]12C` [NBD cholesterol, 22-(N-(7-nitrobenz-2-oxa-1,3-diazol-4-yl)amino)-23,24-bisnor-5-cholen-3\u03B2-ol], the “time-dependent fluorescence binding kinetics (time constant)” value worked out at 11.8 ± 0.2 s in experiment [3] and 3.3 ± 0.1 s in experiment [4].
The like results for `CCCCCCCCCCCCCCCC(=O)OC[C@H](COP(=O)([O-])OCC[N+](C)(C)C)OC(=O)CCCCCCCCCCCNc1ccc([N+](=O)[O-])c2nonc12` [NBD C12-HPC, 2-(12-(7-nitrobenz-2-oxa-1,3-diazol-4-yl)amino)dodecanoyl-1-hexadecanoyl-sn-glycero-3-phosphocholine] were, in that order, 32.2 ± 0.2 s and 22.2 ± 0.4 s.
